Columns and labels:
Assay in all cases: KINOMEscan competition binding
Conditions in all cases: compound 10.0 µM
ACVR1 (human) = ACVR1 (human) (UniProt Q04771)
ACVR2B (human) = ACVR2B (human) (UniProt Q13705)
CAMK1G (human) = CAMK1G (human) (UniProt Q96NX5)
CAMKK2 (human) = CAMKK2 (human) (UniProt Q96RR4)
CDKL2 (human) = CDKL2 (human) (UniProt Q92772)
CDKL3 (human) = CDKL3 (human) (UniProt Q8IVW4)
CHEK2 (human) = CHEK2 (human) (UniProt O96017)
CLK4 (human) = CLK4 (human) (UniProt Q9HAZ1)
CSNK1D (human) = CSNK1D (human) (UniProt P48730)
EPHB2 (human) = EPHB2 (human) (UniProt P29323)
ERBB4 (human) = ERBB4 (human) (UniProt Q15303)
HCK (human) = HCK (human) (UniProt P08631)
IKBKE (human) = IKBKE (human) (UniProt Q14164)
IRAK3 (human) = IRAK3 (human) (UniProt Q9Y616)
[1] = target: JAK1 JH2 pseudokinase (human) (UniProt P23458)
LTK (human) = LTK (human) (UniProt P29376)
MAP3K10 (human) = MAP3K10 (human) (UniProt Q02779)
MAP3K12 (human) = MAP3K12 (human) (UniProt Q12852)
MAP4K2 (human) = MAP4K2 (human) (UniProt Q12851)
MAP4K4 (human) = MAP4K4 (human) (UniProt O95819)
MAPK13 (human) = MAPK13 (human) (UniProt O15264)
MAPK9 (human) = MAPK9 (human) (UniProt P45984)
MARK3 (human) = MARK3 (human) (UniProt P27448)
MLTK (human) = MLTK (human) (UniProt Q9NYL2)
NEK3 (human) = NEK3 (human) (UniProt P51956)
NEK4 (human) = NEK4 (human) (UniProt P51957)
PAK2 (human) = PAK2 (human) (UniProt Q13177)
PAK3 (human) = PAK3 (human) (UniProt O75914)
PAK6 (human) = PAK6 (human) (UniProt Q9NQU5)
PI4KB (human) = PI4KB (human) (UniProt Q9UBF8)
PRKACB (human) = PRKACB (human) (UniProt P22694)
PRKD1 (human) = PRKD1 (human) (UniProt Q15139)
RIPK1 (human) = RIPK1 (human) (UniProt Q13546)
RPS6KA1 KD1 (human) = RPS6KA1 KD1 (human) (UniProt Q15418)
RPS6KA4 KD2 (human) = RPS6KA4 KD2 (human) (UniProt O75676)
STK24 (human) = STK24 (human) (UniProt Q9Y6E0)
STK33 (human) = STK33 (human) (UniProt Q9BYT3)
STK4 (human) = STK4 (human) (UniProt Q13043)
[2] = target: TYK2 JH1 catalytic (human) (UniProt P29597)
ZAP70 (human) = ZAP70 (human) (UniProt P43403)

Sequence of MAP3K10 (human) (Q02779 whole entry, looked up): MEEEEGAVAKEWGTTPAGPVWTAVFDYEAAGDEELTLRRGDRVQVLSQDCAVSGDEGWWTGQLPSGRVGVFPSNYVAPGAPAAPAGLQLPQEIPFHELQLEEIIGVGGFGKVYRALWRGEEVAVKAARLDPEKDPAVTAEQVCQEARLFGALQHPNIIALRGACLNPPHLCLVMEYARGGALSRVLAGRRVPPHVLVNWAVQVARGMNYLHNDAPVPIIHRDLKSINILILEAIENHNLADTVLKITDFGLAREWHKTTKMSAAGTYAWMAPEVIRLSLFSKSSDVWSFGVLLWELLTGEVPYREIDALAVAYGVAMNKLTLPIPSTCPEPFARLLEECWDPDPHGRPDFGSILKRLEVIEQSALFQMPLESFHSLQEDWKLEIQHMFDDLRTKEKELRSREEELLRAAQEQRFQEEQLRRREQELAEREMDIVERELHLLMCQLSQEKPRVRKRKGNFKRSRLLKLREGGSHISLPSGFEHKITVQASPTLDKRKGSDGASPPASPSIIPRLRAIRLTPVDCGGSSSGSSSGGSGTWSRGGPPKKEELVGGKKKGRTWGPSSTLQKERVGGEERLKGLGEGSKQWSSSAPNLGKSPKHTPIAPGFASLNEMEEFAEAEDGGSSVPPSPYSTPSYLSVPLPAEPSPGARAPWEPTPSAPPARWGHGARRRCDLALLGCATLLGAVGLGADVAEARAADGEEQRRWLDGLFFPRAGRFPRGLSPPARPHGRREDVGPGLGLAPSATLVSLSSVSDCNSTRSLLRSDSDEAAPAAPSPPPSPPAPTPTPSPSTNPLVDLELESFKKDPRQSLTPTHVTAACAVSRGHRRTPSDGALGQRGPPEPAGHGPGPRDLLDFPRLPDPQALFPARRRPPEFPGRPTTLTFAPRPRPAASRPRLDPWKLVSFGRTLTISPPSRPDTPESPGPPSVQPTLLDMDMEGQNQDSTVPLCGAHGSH
Sequence of STK33 (human) (Q9BYT3 whole entry, looked up): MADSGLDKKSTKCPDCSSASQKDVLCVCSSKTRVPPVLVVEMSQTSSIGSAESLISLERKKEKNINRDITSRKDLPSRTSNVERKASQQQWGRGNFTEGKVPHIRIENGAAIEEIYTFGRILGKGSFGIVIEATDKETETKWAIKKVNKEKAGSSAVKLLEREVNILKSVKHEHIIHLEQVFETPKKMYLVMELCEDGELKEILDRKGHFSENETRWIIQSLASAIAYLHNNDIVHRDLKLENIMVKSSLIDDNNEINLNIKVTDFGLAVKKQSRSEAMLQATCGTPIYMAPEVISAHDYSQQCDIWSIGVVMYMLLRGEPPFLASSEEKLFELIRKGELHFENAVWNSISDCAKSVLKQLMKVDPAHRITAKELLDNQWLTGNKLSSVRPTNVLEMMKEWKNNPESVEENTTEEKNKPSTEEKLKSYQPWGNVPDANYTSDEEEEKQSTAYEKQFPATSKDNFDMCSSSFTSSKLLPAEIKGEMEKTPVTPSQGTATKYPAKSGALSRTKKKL
Sequence of HCK (human) (P08631 whole entry, looked up): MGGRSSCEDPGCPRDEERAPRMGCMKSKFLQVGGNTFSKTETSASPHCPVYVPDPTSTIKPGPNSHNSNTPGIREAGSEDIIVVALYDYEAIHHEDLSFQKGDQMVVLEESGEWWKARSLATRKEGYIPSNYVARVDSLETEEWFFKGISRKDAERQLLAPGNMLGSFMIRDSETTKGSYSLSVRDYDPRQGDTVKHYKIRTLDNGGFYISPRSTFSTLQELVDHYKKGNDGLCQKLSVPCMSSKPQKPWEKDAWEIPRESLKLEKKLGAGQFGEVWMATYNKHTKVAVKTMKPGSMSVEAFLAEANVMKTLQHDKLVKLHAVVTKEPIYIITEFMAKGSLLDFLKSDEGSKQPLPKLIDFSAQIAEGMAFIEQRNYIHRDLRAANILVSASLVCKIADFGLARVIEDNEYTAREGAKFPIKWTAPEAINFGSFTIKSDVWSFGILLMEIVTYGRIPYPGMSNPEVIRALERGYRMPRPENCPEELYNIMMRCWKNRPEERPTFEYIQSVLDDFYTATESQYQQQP
Sequence of MAP4K4 (human) (O95819 whole entry, looked up): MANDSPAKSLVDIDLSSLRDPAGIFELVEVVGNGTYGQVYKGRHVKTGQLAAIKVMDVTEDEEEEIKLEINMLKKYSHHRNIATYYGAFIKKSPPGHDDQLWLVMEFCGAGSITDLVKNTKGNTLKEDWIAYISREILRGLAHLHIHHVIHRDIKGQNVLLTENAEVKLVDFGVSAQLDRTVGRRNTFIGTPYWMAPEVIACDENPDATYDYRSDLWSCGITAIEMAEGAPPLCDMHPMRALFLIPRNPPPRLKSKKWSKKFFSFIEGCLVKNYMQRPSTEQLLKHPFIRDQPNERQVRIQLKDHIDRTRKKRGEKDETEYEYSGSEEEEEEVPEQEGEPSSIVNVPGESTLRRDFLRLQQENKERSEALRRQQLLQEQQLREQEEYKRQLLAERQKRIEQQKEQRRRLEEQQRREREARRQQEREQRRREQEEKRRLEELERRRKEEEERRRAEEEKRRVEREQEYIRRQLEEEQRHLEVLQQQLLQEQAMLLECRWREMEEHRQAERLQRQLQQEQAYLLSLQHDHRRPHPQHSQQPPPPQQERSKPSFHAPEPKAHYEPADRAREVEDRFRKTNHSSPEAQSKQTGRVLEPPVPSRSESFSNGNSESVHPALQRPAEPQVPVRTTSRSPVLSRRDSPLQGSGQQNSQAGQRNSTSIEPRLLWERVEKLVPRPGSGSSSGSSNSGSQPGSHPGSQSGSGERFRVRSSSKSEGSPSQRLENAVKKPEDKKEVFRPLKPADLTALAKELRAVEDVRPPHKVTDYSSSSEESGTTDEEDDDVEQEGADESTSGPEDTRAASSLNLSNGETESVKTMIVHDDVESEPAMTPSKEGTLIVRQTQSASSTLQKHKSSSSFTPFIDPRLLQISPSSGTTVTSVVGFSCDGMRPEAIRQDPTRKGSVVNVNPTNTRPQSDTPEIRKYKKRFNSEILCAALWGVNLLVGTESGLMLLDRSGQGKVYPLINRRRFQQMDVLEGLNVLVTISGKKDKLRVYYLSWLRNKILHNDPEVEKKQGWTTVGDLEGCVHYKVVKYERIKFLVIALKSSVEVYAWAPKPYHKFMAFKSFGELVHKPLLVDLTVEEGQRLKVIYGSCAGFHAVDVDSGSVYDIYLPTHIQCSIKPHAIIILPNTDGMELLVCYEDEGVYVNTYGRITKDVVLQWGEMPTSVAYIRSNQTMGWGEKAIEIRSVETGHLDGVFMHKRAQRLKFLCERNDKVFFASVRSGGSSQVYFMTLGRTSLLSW
Sequence of CDKL2 (human) (Q92772 whole entry, looked up): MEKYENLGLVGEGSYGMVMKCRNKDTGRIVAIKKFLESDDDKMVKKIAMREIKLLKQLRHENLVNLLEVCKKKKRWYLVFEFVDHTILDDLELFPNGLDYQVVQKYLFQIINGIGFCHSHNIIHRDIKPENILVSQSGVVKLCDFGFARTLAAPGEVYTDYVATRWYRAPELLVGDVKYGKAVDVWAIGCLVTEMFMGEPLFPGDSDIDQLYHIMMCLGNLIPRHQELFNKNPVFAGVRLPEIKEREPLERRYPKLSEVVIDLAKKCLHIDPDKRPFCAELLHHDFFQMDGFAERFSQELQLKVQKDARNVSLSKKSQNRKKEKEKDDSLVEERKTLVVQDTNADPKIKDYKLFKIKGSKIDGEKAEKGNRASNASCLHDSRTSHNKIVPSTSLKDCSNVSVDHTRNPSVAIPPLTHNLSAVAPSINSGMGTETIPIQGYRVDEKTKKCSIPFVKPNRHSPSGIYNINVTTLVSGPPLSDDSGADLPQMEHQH
Sequence of IKBKE (human) (Q14164 whole entry, looked up): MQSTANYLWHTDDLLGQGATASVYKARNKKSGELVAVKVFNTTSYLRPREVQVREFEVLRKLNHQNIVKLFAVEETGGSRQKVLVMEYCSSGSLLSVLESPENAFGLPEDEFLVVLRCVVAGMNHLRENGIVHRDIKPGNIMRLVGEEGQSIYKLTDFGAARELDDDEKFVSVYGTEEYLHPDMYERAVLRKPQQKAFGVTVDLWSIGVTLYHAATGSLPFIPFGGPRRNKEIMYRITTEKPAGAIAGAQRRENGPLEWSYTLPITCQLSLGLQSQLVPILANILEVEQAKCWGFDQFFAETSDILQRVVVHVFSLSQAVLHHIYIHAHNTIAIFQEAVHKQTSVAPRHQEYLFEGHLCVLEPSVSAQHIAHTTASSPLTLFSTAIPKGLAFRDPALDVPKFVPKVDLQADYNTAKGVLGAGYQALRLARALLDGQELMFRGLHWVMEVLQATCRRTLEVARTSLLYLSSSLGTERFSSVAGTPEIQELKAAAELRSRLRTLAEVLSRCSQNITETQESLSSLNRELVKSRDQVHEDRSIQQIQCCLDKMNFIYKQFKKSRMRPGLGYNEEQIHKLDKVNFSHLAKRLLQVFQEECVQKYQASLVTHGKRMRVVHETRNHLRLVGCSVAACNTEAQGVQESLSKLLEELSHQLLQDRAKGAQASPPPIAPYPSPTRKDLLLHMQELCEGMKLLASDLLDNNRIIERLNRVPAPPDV
Sequence of NEK3 (human) (P51956 whole entry, looked up): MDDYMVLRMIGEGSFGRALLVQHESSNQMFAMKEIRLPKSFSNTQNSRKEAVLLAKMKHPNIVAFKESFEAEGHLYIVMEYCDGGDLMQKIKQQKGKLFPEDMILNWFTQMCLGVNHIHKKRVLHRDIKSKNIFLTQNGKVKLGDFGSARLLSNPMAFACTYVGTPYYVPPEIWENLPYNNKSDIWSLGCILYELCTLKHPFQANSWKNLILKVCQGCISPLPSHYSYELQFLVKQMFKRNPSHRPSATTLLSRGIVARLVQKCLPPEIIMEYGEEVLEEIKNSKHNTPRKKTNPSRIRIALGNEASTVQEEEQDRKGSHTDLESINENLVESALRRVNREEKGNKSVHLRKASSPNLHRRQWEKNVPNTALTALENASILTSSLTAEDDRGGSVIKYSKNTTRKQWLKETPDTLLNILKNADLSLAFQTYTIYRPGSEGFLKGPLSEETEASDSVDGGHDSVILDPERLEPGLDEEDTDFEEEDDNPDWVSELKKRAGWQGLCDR

O=c1cc(N2CCOCC2)oc2c(-c3cccc4c3sc3ccccc34)cccc12
kinase still bound, per cent of control (ACVR1 (human)): 91% | kinase still bound, per cent of control (ACVR2B (human)): 98% | kinase still bound, per cent of control (CAMK1G (human)): 85% | kinase still bound, per cent of control (CAMKK2 (human)): 88% | kinase still bound, per cent of control (CDKL2 (human)): 96% | kinase still bound, per cent of control (CDKL3 (human)): 100% | kinase still bound, per cent of control (CHEK2 (human)): 100% | kinase still bound, per cent of control (CLK4 (human)): 95% | kinase still bound, per cent of control (CSNK1D (human)): 89% | kinase still bound, per cent of control (EPHB2 (human)): 91% | kinase still bound, per cent of control (ERBB4 (human)): 92% | kinase still bound, per cent of control (HCK (human)): 100% | kinase still bound, per cent of control (IKBKE (human)): 100% | kinase still bound, per cent of control (IRAK3 (human)): 41% | kinase still bound, per cent of control [1]: 72% | kinase still bound, per cent of control (LTK (human)): 93% | kinase still bound, per cent of control (MAP3K10 (human)): 100% | kinase still bound, per cent of control (MAP3K12 (human)): 90% | kinase still bound, per cent of control (MAP4K2 (human)): 100% | kinase still bound, per cent of control (MAP4K4 (human)): 100% | kinase still bound, per cent of control (MAPK13 (human)): 99% | kinase still bound, per cent of control (MAPK9 (human)): 39% | kinase still bound, per cent of control (MARK3 (human)): 99% | kinase still bound, per cent of control (MLTK (human)): 93% | kinase still bound, per cent of control (NEK3 (human)): 100% | kinase still bound, per cent of control (NEK4 (human)): 100% | kinase still bound, per cent of control (PAK2 (human)): 61% | kinase still bound, per cent of control (PAK3 (human)): 100% | kinase still bound, per cent of control (PAK6 (human)): 94% | kinase still bound, per cent of control (PI4KB (human)): 100% | kinase still bound, per cent of control (PRKACB (human)): 92% | kinase still bound, per cent of control (PRKD1 (human)): 98% | kinase still bound, per cent of control (RIPK1 (human)): 100% | kinase still bound, per cent of control (RPS6KA1 KD1 (human)): 100% | kinase still bound, per cent of control (RPS6KA4 KD2 (human)): 100% | kinase still bound, per cent of control (STK24 (human)): 86% | kinase still bound, per cent of control (STK33 (human)): 100% | kinase still bound, per cent of control (STK4 (human)): 98% | kinase still bound, per cent of control [2]: 75% | kinase still bound, per cent of control (ZAP70 (human)): 100%

NC(=O)Nc1cc(-c2cccc(F)c2)sc1C(=O)N[C@@H]1CCCNC1
kinase still bound, per cent of control (ACVR1 (human)): 4% | kinase still bound, per cent of control (ACVR2B (human)): 3.8% | kinase still bound, per cent of control (CAMK1G (human)): 6.2% | kinase still bound, per cent of control (CAMKK2 (human)): 2.9% | kinase still bound, per cent of control (CDKL2 (human)): 60% | kinase still bound, per cent of control (CDKL3 (human)): 100% | kinase still bound, per cent of control (CHEK2 (human)): 3.8% | kinase still bound, per cent of control (CLK4 (human)): 2.4% | kinase still bound, per cent of control (CSNK1D (human)): 15% | kinase still bound, per cent of control (EPHB2 (human)): 9.6% | kinase still bound, per cent of control (ERBB4 (human)): 4.4% | kinase still bound, per cent of control (HCK (human)): 0% | kinase still bound, per cent of control (IKBKE (human)): 3.6% | kinase still bound, per cent of control (IRAK3 (human)): 6.4% | kinase still bound, per cent of control [1]: 2.5% | kinase still bound, per cent of control (LTK (human)): 0.3% | kinase still bound, per cent of control (MAP3K10 (human)): 1.2% | kinase still bound, per cent of control (MAP3K12 (human)): 9.7% | kinase still bound, per cent of control (MAP4K2 (human)): 0% | kinase still bound, per cent of control (MAP4K4 (human)): 0.5% | kinase still bound, per cent of control (MAPK13 (human)): 100% | kinase still bound, per cent of control (MAPK9 (human)): 38% | kinase still bound, per cent of control (MARK3 (human)): 0.85% | kinase still bound, per cent of control (MLTK (human)): 40% | kinase still bound, per cent of control (NEK3 (human)): 43% | kinase still bound, per cent of control (NEK4 (human)): 22% | kinase still bound, per cent of control (PAK2 (human)): 16% | kinase still bound, per cent of control (PAK3 (human)): 0.5% | kinase still bound, per cent of control (PAK6 (human)): 0.35% | kinase still bound, per cent of control (PI4KB (human)): 100% | kinase still bound, per cent of control (PRKACB (human)): 1.8% | kinase still bound, per cent of control (PRKD1 (human)): 0.3% | kinase still bound, per cent of control (RIPK1 (human)): 100% | kinase still bound, per cent of control (RPS6KA1 KD1 (human)): 11% | kinase still bound, per cent of control (RPS6KA4 KD2 (human)): 0.35% | kinase still bound, per cent of control (STK24 (human)): 0.3% | kinase still bound, per cent of control (STK33 (human)): 0% | kinase still bound, per cent of control (STK4 (human)): 0.4% | kinase still bound, per cent of control [2]: 0% | kinase still bound, per cent of control (ZAP70 (human)): 0%
